Test results taken from PMC8201173, “Inhibition of Carbonic Anhydrase IX Promotes Apoptosis through Intracellular pH Level Alterations in Cervical Cancer Cells” (International Journal of Molecular Sciences, 2021).

Assays:
Type in all cases: cell-based
HeLa cells [1] = test: Cell cycle analysis (PI staining, flow cytometry); conditions: for Cells in G2/M phase / Cells in S phase / Cells in G0/G1 phase: 72 h; for Cells in G2/M phase: WT 20.4%; for Cells in S phase: WT 23.2%; for Cells in G0/G1 phase: WT 56.6%
Description: Cell cycle analysis was performed using BD Cycletest ™ Plus DNA Reagent kit (BD Biosciences, NJ, USA). […] The cells were raised with trypsin and centrifuged at 1500 rpm for 5 min. When a suspension was created by 1X binding buffer, 250 µL solution A was added and incubated in a light-free environment for 10 min, 200 µL solution B was added and incubated in light-free environment for 10 min, and 200 µL solution C was added and incubated at +4 °C in a protected-light environment for 10 min. All these analyses were performed by flow cytometry (BD Via, NJ, USA).

HeLa cells [2] = test: BrdU ELISA proliferation assay; conditions: 2.5 to 200 μM, 72 h
Description: The effects of compound E on the proliferation of HeLa cells were investigated by a commercial proliferation kit BrDU (BioVision, CA, USA) according to the protocols of the manufacturer. Twenty-four hours later, the cells were planted in 96 well plates (10^4 cell/mL), the medium was replaced, and the substance was administrated at a range from 2.5 to 200 μM for 72 h. Subsequently, the media were […], after which 100 µL 1X of BrdU reactive was added; then, they were placed in an incubator that contained % 5 CO2, 95% fresh air, at 37 °C, for 4 h. The medium was then removed, and 100 μL of fixative/denaturation solution was added and incubated for 30 min. A total of 100 µL 1X of the antibody solution BrdU was added, following 1-h incubation, the solution washed by 300 µL 1X of the washing solution two times. A volume of 100 μL 1X of anti-mouse HRP-linked antibody was added and incubated at room temperature for 1 h. Then, the cells were washed with 300 µL 1X of washing solution. Final incubation was performed by 100 μL of TMB substrate solution for 5 min, after which the stop solution was added; consequently, reading at a wavelength of 450 nm was performed.

HeLa cells [3] = test: γ-H2AX immunofluorescence staining (DNA damage); conditions: 10–25–50 µM, 24 h
Description: HeLa cells (1 × 10^4/^mL) were seeded in 12-well cell culture plates, and after 24 h incubation, they were treated with the compound E at doses of 10–25–50 µM and incubated for 24 h. The cells were washed with PBS and fixed with 100% methanol at −20 °C overnight, which was followed by PBS washing three times for 10 min. The cells were treated with % 0.2 Triton X-100 on a shaker at room temperature for 5 min. It was washed with PBS, and 1% BSA-containing PBS was added and incubated with primary mouse monoclonal anti-γ-H2AX antibody (Cell Signalling Technology, MA, USA) at 37 °C for 1 h. The cells were washed with PBS three times for 5 min. Secondary goat anti-mouse Alexa-488-conjugated IgG (Invitrogen, CA, USA) was administrated and incubated at 37 °C for 20 min, which was followed by PBS washing three times for 4–5 min. One millilitre of 70% EtOH was added, and at +4 °C it was incubated for 5 min. One millilitre of 100% EtOH was added and, on a shaker, incubated at room temperature for 1–2 min. The nucleus was stained with DAPI. The images were recorded by Olympus Inverted fluorescence microscope (Olympus CKX 51, DP73, USA).

HeLa cells [4] = test: Western blot of apoptotic proteins and CAIX; conditions: 24 h
Description: The cells were seeded on 6 cm^2 cell culture dishes and treated with the compound E at doses of 10–25–50 μM, for 24 h. The cells were then washed by cold PBS, which was followed by lysis with RIPA lysis tampon (10 mM Tris-HC1 pH:8.1 mM EDTA, 1 mM EGTA, 140 mM NaCl, 1% TritonX-100, 0.1 SDS, 0.1% Sodium deoxycholate), 1X phosphates, and protease inhibitor (Santa Cruz, Heidelberg, Germany). Acquired supernatant was centrifuged at 12,000× g for 10 min and transferred to new tubes. Protein concentration was detected using the protein assay kit BCA (Thermo Fisher Scientific, MA, USA). Following protein (50 µg) standing in 10% SDS-PAGE gel at 50 V for 30 min and 80 V for 3 h, the proteins were blotted to PVDF membrane at 70 V for 5 min (Bio-Rad Turbo Transfer System). After blocking in 1X TBST (12.1 gr Tris, pH 7.5, 70 gr NaCl, %0.1 Tween-20) containing 5% dry milk or 5% BSA, the primer monoclonal antibodies shown in Table 3 were administrated to the membrane overnight, which was followed by washing with 1 X TBS-T and incubation period with secondary antibodies HRP rabbit or mouse (1/10.000) for 60 min. The membrane was washed with 1 X TBS-T again. For band imaging, ECL substrate (EMD Millipore Corp., MA, USA) was used in the imaging system (LI-COR Odyssey Fc, NE, USA).

With `NS(=O)(=O)c1ccc(CCNCc2cc(Br)ccc2O)cc1` [Compound E, 4-(2-((5-bromo-2-hydroxybenzyl)amino)ethyl) benzenesulphonamide] the Cell cycle arrest (HeLa cells [1]) was “arrested cell cycle of HeLa cells at the G0/G1 phase”, the “Cells in G2/M phase” value (HeLa cells [1]; 10 µM) was 22.3% and the “Cells in S phase” value (HeLa cells [1]; 10 µM) was 19.3%. The “Cells in G0/G1 phase” value (HeLa cells [1]; 10 µM) was 56.8%, the “Cells in G2/M phase” value (HeLa cells [1]; 25 µM) was 17.9% and the “Cells in S phase” value (HeLa cells [1]; 25 µM) was 14.6%. The “Cells in G0/G1 phase” value (HeLa cells [1]; 25 µM) was 66.5%, the “Cells in G2/M phase” value (HeLa cells [1]; 50 µM) was 19.3% and the “Cells in S phase” value (HeLa cells [1]; 50 µM) was 10.8%. The “Cells in G0/G1 phase” value (HeLa cells [1]; 50 µM) was 68.8%, the “Proliferation of HeLa cells (BrdU ELISA)” value (HeLa cells [2]) was “reduce the proliferation of HeLa cells in a dose-dependent manner” and the “DNA damage (γ-H2AX level)” value (HeLa cells [3]) was “induced DNA damage in a dose-dependent manner”. For the same molecule, the CAIX protein level (HeLa cells [4]; 25 µM) was “effective for inhibiton of CAIX protein”, the “Cleaved PARP protein level” value (HeLa cells [4]; 10 and 25 µM, vs WT) was “increased PARP protein level” and the “Cleaved caspase 3, 8, and 9 protein levels” value (HeLa cells [4]; 10–25–50 μM, vs WT) was “increased”. The “Pro-caspase 3 protein level” value (HeLa cells [4]; 10–25–50 μM, vs WT) was “decreased”.
